ChEMBL document CHEMBL3882725, “Indazole derivatives as JNK inhibitors and compositions and methods related thereto” (2002)

target: Mitogen-activated protein kinase 9 (Homo sapiens, UniProt P45984); experiment: Inhibition of His6-tagged JNK2 (unknown origin) assessed as reduction in c-Jun phosphorylation using GST-c-Jun (1 to 79 residues) and [gamma32P]ATP incubated for 1 hr by scintillation counting assay
Sequence (P45984 whole entry, the tested form may be a part): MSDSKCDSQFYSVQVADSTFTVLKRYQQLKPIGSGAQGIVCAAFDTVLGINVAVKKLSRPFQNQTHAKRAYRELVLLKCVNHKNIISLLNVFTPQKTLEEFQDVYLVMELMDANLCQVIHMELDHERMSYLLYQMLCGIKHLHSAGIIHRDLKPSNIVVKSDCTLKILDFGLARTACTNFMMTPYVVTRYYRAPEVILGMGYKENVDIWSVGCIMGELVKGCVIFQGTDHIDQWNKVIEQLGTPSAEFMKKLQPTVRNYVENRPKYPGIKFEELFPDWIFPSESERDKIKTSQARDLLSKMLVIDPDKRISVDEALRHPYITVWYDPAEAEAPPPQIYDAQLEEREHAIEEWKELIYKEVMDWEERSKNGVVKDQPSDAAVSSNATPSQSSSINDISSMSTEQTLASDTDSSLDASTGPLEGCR

`Cc1ccc(/C=C/c2n[nH]c3ccc(-c4nnc[nH]4)cc23)cc1` and `Cc1ccc(-c2n[nH]c3ccc(-c4nnc[nH]4)cc23)cc1` fall in the same range of IC50: 1 to 10 µM for the first, 1 to 10 µM for the second.

`CNCc1nc(-c2ccc3[nH]nc(-c4ccc(F)cc4)c3c2)n[nH]1` and `CC(c1nc(-c2ccc3[nH]nc(-c4ccc(F)cc4)c3c2)n[nH]1)N(C)C` (stereo not drawn) fall in the same range of IC50: 0.5 to 10 µM for the first, 0.5 to 10 µM for the second.

`CN(C)c1ccc(-c2n[nH]c3ccc(-c4ncn[nH]4)cc23)cc1` and `CN(C)c1ccc(-c2n[nH]c3ccc(C(N)=O)cc23)cc1` fall in the same range of IC50: 1 to 10 µM for the first, 1 to 10 µM for the second.

`CN1CCN(CC(=O)Nc2cccc(-c3n[nH]c4ccc(-c5nc[nH]n5)cc34)c2)CC1` and `O=C(CCN1CCCCC1)Nc1cccc(-c2n[nH]c3ccc(-c4nc[nH]n4)cc23)c1` fall in the same range of IC50: 1 to 10 µM for the first, 1 to 10 µM for the second.

`Cc1ccc(C(=O)Nc2cccc(-c3n[nH]c4ccc(-c5nc[nH]n5)cc34)c2)cc1` and `O=C(Nc1cccc(-c2n[nH]c3ccc(-c4nc[nH]n4)cc23)c1)c1ccno1` cannot be ordered by IC50: 1 to 10 µM for the first, 0.5 to 10 µM for the second.

`O=C(Nc1cccc([N+](=O)[O-])c1)c1ccc2[nH]nc(-c3ccc(F)cc3)c2c1` and `O=C(Nc1ccccc1)c1ccc2[nH]nc(-c3ccc(F)cc3)c2c1` cannot be ordered by IC50: 1 to 10 µM for the first, at most 10 µM for the second.

`O=C(NCC1CCCC[C@H]1O)c1ccc2[nH]nc(-c3ccc(F)cc3)c2c1` (stereo partly drawn) and `NNC(=O)c1ccc2[nH]nc(-c3ccc(F)cc3)c2c1` fall in the same range of IC50: 1 to 10 µM for the first, 1 to 10 µM for the second.

`COC(=O)CCc1nnc(-c2ccc3[nH]nc(-c4ccc(F)cc4)c3c2)[nH]1` and `CCOC(=O)CCCc1nnc(-c2ccc3[nH]nc(-c4ccc(F)cc4)c3c2)[nH]1` fall in the same range of IC50: 1 to 10 µM for the first, 1 to 10 µM for the second.

`COc1ccc(-c2n[nH]c3ccc(C(N)=O)cc23)cc1` and `CN(C)CCOc1ccc(-c2n[nH]c3ccc(C(N)=O)cc23)cc1` fall in the same range of IC50: 1 to 10 µM for the first, 1 to 10 µM for the second.

`Nc1ccc2[nH]nc(-c3cccc(C(F)(F)F)c3)c2c1` and `NC(=O)c1ccc2[nH]nc(-c3cccc(N)c3)c2c1` cannot be ordered by IC50: at most 10 µM for the first, 1 to 10 µM for the second.

`c1cncc(COc2cccc(-c3n[nH]c4ccc(-c5nc[nH]n5)cc34)c2)c1` and `CC(C)NC(=O)c1cccc(-c2n[nH]c3ccc(-c4nc[nH]n4)cc23)c1` cannot be ordered by IC50: 1 to 10 µM for the first, 0.5 to 10 µM for the second.

`CC(C(=O)Nc1cccc(-c2n[nH]c3ccc(C(N)=O)cc23)c1)c1ccccc1` (stereo not drawn) and `NC(=O)c1ccc2[nH]nc(-c3cccc(NC(=O)c4cccs4)c3)c2c1` fall in the same range of IC50: 1 to 10 µM for the first, 1 to 10 µM for the second.

`NC(=O)c1ccc2[nH]nc(-c3cc4ccccc4o3)c2c1` and `CC(C)CNC(=O)c1ccc2[nH]nc(-c3cc4ccccc4o3)c2c1` fall in the same range of IC50: 1 to 10 µM for the first, 1 to 10 µM for the second.

`O=C(O)c1ccc(C(=O)Nc2ccc3[nH]nc(-c4ccc(F)cc4)c3c2)cc1` and `NC(=O)c1ccc(C(=O)Nc2ccc3[nH]nc(-c4ccc(F)cc4)c3c2)cc1` fall in the same range of IC50: 1 to 10 µM for the first, 1 to 10 µM for the second.

`NC(=O)c1ccc2[nH]nc(C#Cc3ccccc3)c2c1` and `C(#Cc1n[nH]c2ccc(-c3nnc[nH]3)cc12)c1ccccc1` fall in the same range of IC50: 1 to 10 µM for the first, 1 to 10 µM for the second.

`CN(C)Cc1n[nH]c(-c2ccc3[nH]nc(-c4cc5ccccc5o4)c3c2)n1` and `CN(C)Cc1n[nH]c(-c2ccc3[nH]nc(-c4cccc(C(=O)Nc5ccccc5)c4)c3c2)n1` cannot be ordered by IC50: 1 to 10 µM for the first, 0.5 to 10 µM for the second.

`O=C(NC1CCCC1)c1cccc(-c2n[nH]c3ccc(-c4nc[nH]n4)cc23)c1` and `O=C(NC1CCCCC1)c1cccc(-c2n[nH]c3ccc(-c4nc[nH]n4)cc23)c1` fall in the same range of IC50: 0.5 to 10 µM for the first, 0.5 to 10 µM for the second.

`CC(C)(C)OC(=O)NNC(=O)c1ccc2[nH]nc(-c3ccc(F)cc3)c2c1` and `CC(C)(C)OC(=O)CCNC(=O)c1ccc2[nH]nc(-c3ccc(F)cc3)c2c1` cannot be ordered by IC50: 1 to 10 µM for the first, at most 10 µM for the second.

`CNC(=O)c1ccc(C(=O)Nc2ccc3[nH]nc(-c4ccc(F)cc4)c3c2)cc1` and `NC(=O)c1ccc(NC(=O)c2ccc3[nH]nc(-c4ccc(F)cc4)c3c2)cc1` fall in the same range of IC50: 1 to 10 µM for the first, 1 to 10 µM for the second.

`COc1ccc(-c2n[nH]c3ccc(-c4nnn[nH]4)cc23)cc1OC` and `COc1cccc(-c2n[nH]c3ccc(-c4nnn[nH]4)cc23)c1` fall in the same range of IC50: 0.5 to 10 µM for the first, 0.5 to 10 µM for the second.

`CCCCC(=O)Nc1cccc(-c2n[nH]c3ccc(-c4nc[nH]n4)cc23)c1` and `CCCC(=O)Nc1cccc(-c2n[nH]c3ccc(-c4nc[nH]n4)cc23)c1` fall in the same range of IC50: 0.5 to 10 µM for the first, 0.5 to 10 µM for the second.

`O=C(NC1CCN(Cc2ccccc2)C1)c1cccc(-c2n[nH]c3ccc(-c4nc[nH]n4)cc23)c1` (stereo not drawn) and `O=C(NCCC1CCN(Cc2ccccc2)CC1)c1cccc(-c2n[nH]c3ccc(-c4nc[nH]n4)cc23)c1` fall in the same range of IC50: 0.5 to 10 µM for the first, 0.5 to 10 µM for the second.

`Fc1ccc(-c2n[nH]c3ccc(-c4nnc(Cc5ccccc5)[nH]4)cc23)cc1` and `Fc1ccc(-c2n[nH]c3ccc(-c4nnc(-c5cccnc5)[nH]4)cc23)cc1` fall in the same range of IC50: 1 to 10 µM for the first, 1 to 10 µM for the second.

`CC(O)c1nnc(-c2ccc3[nH]nc(-c4ccc(F)cc4)c3c2)[nH]1` (stereo not drawn) and `CC(O)Cc1nnc(-c2ccc3[nH]nc(-c4ccc(F)cc4)c3c2)[nH]1` (stereo in doubt; form 1) fall in the same range of IC50: 0.5 to 10 µM for the first, 0.5 to 10 µM for the second.

`O=C(NCCCN1CCOCC1)c1ccc2[nH]nc(-c3ccc(F)cc3)c2c1` and `NCCCNC(=O)c1ccc2[nH]nc(-c3ccc(F)cc3)c2c1` cannot be ordered by IC50: at most 10 µM for the first, 1 to 10 µM for the second.

`CN(C)CCNC(=O)c1cccc(-c2n[nH]c3ccc(-c4ncn[nH]4)cc23)c1` and `CN1CCN(C(=O)c2cccc(-c3n[nH]c4ccc(-c5ncn[nH]5)cc34)c2)CC1` cannot be ordered by IC50: 0.5 to 10 µM for the first, at most 10 µM for the second.

`CN(C)Cc1nc(-c2ccc3[nH]nc(-c4cccc(C(=O)NC(C)(C)C)c4)c3c2)n[nH]1` and `CC(C)CC(=O)Nc1cccc(-c2n[nH]c3ccc(-c4n[nH]c(CN(C)C)n4)cc23)c1` fall in the same range of IC50: 0.5 to 10 µM for the first, 0.5 to 10 µM for the second.

`NC(=O)c1ccc2[nH]nc(-c3cccc(NC(=O)Cc4ccc(F)cc4Cl)c3)c2c1` and `NC(=O)c1ccc2[nH]nc(-c3cccc(NC(=O)Cc4ccc(F)c(F)c4)c3)c2c1` fall in the same range of IC50: 1 to 10 µM for the first, 1 to 10 µM for the second.

`OC1CCN(Cc2nnc(-c3ccc4[nH]nc(-c5ccc(F)cc5)c4c3)[nH]2)CC1` and `Nc1nnc(-c2ccc3[nH]nc(-c4ccc(F)cc4)c3c2)[nH]1` fall in the same range of IC50: 1 to 10 µM for the first, 1 to 10 µM for the second.

`CC(C)c1ccc(-c2n[nH]c3ccc(-c4nnn[nH]4)cc23)cc1` and `Nc1cccc(-c2n[nH]c3ccc(-c4nnn[nH]4)cc23)c1` cannot be ordered by IC50: 1 to 10 µM for the first, 0.5 to 10 µM for the second.

`Fc1ccc(-c2n[nH]c3ccc(-c4nnc[nH]4)cc23)cc1` and `Nc1cccc(-c2n[nH]c3ccc(-c4nnc[nH]4)cc23)c1` cannot be ordered by IC50: 0.5 to 10 µM for the first, 1 to 10 µM for the second.

`C[C@H](O)C(=O)Nc1cccc(-c2n[nH]c3ccc(-c4nn[nH]n4)cc23)c1` and `COCC(=O)Nc1cccc(-c2n[nH]c3ccc(-c4nn[nH]n4)cc23)c1` fall in the same range of IC50: 0.5 to 10 µM for the first, 0.5 to 10 µM for the second.

`Cc1ncc(CC(=O)Nc2cccc(-c3n[nH]c4ccc(C(N)=O)cc34)c2)s1` and `NC(=O)c1ccc2[nH]nc(-c3cccc(NC(=O)Cc4ccsc4)c3)c2c1` fall in the same range of IC50: 1 to 10 µM for the first, 1 to 10 µM for the second.

`c1cc2[nH]nc(-c3ccc4c(c3)OCO4)c2cc1-c1nnn[nH]1` and `CN(C)Cc1nc(-c2ccc3[nH]nc(-c4ccc5c(c4)OCO5)c3c2)n[nH]1` fall in the same range of IC50: 0.5 to 10 µM for the first, 0.5 to 10 µM for the second.

`Fc1ccc(-c2n[nH]c3ccc(-c4nnc(CN5CCOCC5)o4)cc23)cc1` and `CC(C)c1n[nH]c(-c2ccc3[nH]nc(-c4ccc(F)cc4)c3c2)n1` cannot be ordered by IC50: 1 to 10 µM for the first, 0.5 to 10 µM for the second.

`O=[N+]([O-])c1ccc2[nH]nc(-c3cccc4ccccc34)c2c1` and `O=[N+]([O-])c1ccc2[nH]nc(-c3ccccc3)c2c1` cannot be ordered by IC50: at most 10 µM for the first, at most 10 µM for the second.

`O=C(O)CCCNC(=O)c1ccc2[nH]nc(-c3ccc(F)cc3)c2c1` and `NC(=O)CCCNC(=O)c1ccc2[nH]nc(-c3ccc(F)cc3)c2c1` fall in the same range of IC50: 1 to 10 µM for the first, 1 to 10 µM for the second.

`Clc1ccc(/C=C/c2n[nH]c3ccc(-c4nc[nH]n4)cc23)cc1` and `Nc1ccc(-c2n[nH]c3ccc(-c4nc[nH]n4)cc23)cc1` fall in the same range of IC50: 1 to 10 µM for the first, 1 to 10 µM for the second.

`O=C(O)c1ccc(C(=O)Nc2ccc3[nH]nc(-c4ccncc4)c3c2)cc1` and `O=C(O)c1cccc(C(=O)Nc2ccc3[nH]nc(-c4ccc(F)cc4)c3c2)c1` fall in the same range of IC50: 1 to 10 µM for the first, 1 to 10 µM for the second.

`Nc1cccc(C(=O)Nc2ccc3[nH]nc(-c4ccccc4)c3c2)c1` and `O=C(Nc1ccc2[nH]nc(-c3ccc(F)cc3)c2c1)c1ccccc1` fall in the same range of IC50: 1 to 10 µM for the first, 1 to 10 µM for the second.

`NC(=O)c1ccc2[nH]nc(-c3ccc4ccccc4c3)c2c1` and `O=C(NCc1ccccn1)c1ccc2[nH]nc(-c3ccc(F)cc3)c2c1` fall in the same range of IC50: 1 to 10 µM for the first, 1 to 10 µM for the second.

`c1cncc(-c2n[nH]c3ccc(-c4nnn[nH]4)cc23)c1` and `c1coc(-c2n[nH]c3ccc(-c4nnn[nH]4)cc23)c1` cannot be ordered by IC50: at most 10 µM for the first, 0.5 to 10 µM for the second.

`O=C(Nc1ccc2[nH]nc(-c3ccc(F)cc3)c2c1)C1CC1` and `O=C(O)Cc1ccc(NC(=O)c2ccc3[nH]nc(-c4ccc(F)cc4)c3c2)cc1` cannot be ordered by IC50: at most 10 µM for the first, 1 to 10 µM for the second.

`O=C(Cc1ccccc1)Nc1cccc(-c2n[nH]c3ccc(-c4nnc[nH]4)cc23)c1` and `O=C(NCCOc1cccc(-c2n[nH]c3ccc(-c4ncn[nH]4)cc23)c1)OCc1ccccc1` cannot be ordered by IC50: 0.5 to 10 µM for the first, 1 to 10 µM for the second.

`c1cc(OCCCN2CCCCC2)cc(-c2n[nH]c3ccc(-c4ncn[nH]4)cc23)c1` and `c1nc(-c2ccc3[nH]nc(-c4ccc5c(c4)CCO5)c3c2)n[nH]1` cannot be ordered by IC50: 0.5 to 10 µM for the first, 1 to 10 µM for the second.

`CN(C)c1ccc(CC(=O)Nc2cccc(-c3n[nH]c4ccc(C(N)=O)cc34)c2)cc1` and `CN(C)Cc1nc(-c2ccc3[nH]nc(-c4cccc(NC(=O)[C@H](O)c5ccccc5)c4)c3c2)n[nH]1` cannot be ordered by IC50: 1 to 10 µM for the first, 0.5 to 10 µM for the second.

`CN(C)Cc1nc(-c2ccc3[nH]nc(-c4cccc(C(=O)NCc5ccc(F)cc5)c4)c3c2)n[nH]1` gave an IC50 of 0.5 to 10 µM.
